Laboratory results taken from patent US20240317739A1, “NOVEL UREA DERIVATIVE COMPOUND AS RON INHIBITOR” (LG CHEM, LTD., priority 2021, published 2024).
pIC50: −log10 of the molar value.

What was measured:
RON = RON (Homo sapiens, UniProt Q04912); assay: Evaluation of inhibitory activity against RON (TR-FRET); type: biochemical; details: TR-FRET kinase assay, RON protein
Method: In order to measure the inhibitory activity of each of the compounds of Examples against RON, the IC50 of each of the compounds was measured using a Time-Resolved Fluorescence Energy Transfer Chemistry (TR-FRET).
(§1) Specifically, the compound was prepared to a concentration of 1 mM with 100% DMSO and was diluted 10 times in a stepwise manner through 3-fold dilution. 2 ul of the compound diluted in a stepwise manner was added to a 96-well-plate containing 48 ul of a 1×kinase reaction buffer (50 mM HEPES (pH 7.4), 0.01% Tween-20, 5 mM DTT, 0.5 mM Na3VO4, 2 mM EGTA, 10 mM MgCl2).
The RON protein was diluted to a concentration of 49.3 nM with an RON storage buffer (50 mM Tris-HCl (pH 7.5), 150 mM NaCl, 0.5 mM EDTA, 0.02% Triton X-100), and then diluted again to a concentration of 0.4 nM with a 1×kinase reaction buffer. As a substrate cocktail, a RON-specific substrate mixture (40 uM ULight-labeled Poly GT, 100 nM ATP) at a concentration 2 times the final reaction concentration.
(§2) Thereafter, a 384-well-plate was prepared, and 2.5 μl of each of the diluted compounds of Examples was added to a corresponding well of experimental group wells, and 2.5 μl of a 4% DMSO solution was dispensed into high control wells and low control wells.
(§3) Thereafter, 2.5 μL of 0.4 nM RON was dispensed into the high control wells and the experimental group wells, and 2.5 μL of a 1× kinase reaction buffer was added to the low control wells, and the RON and the reaction buffer were centrifuged at room temperature for 40 seconds at 1000 RPM, and then incubated at room temperature for 20 to 30 minutes. Then, 5 uL of a substrate cocktail (2×) was dispensed into all wells, centrifuged at room temperature for 40 seconds at 1000 RPM, and then incubated at room temperature for 60 minutes. Thereafter, 5 uL of 30 mM EDTA was added to all wells to terminate the reaction, and then incubated again at room temperature for 5 minutes. Thereafter, 5 uL of a 4× phosphotyrosine antibody (Perkin Elmer) containing europium was added to all wells, and then incubated at room temperature for 60 minutes. After the incubation, the 384-well-plate was read with a Vison plate reader. At this time, the excitation wavelength was 340 nm, and the emission wavelength was 620 nm and 665 nm. The IC50 value of the compound of each Example was derived using the GraphPd Prism7 program.

cMET = cMET (Homo sapiens, UniProt P08581); assay: Evaluation of inhibitory activity against MET (TR-FRET); type: biochemical; details: TR-FRET kinase assay, cMET protein
Method: In addition, in order to measure the enzyme activity inhibition for cMET, the evaluation was performed in the same manner as the enzyme activity inhibition measurement experiment for the RON.
as §1, with “a 1× kinase” for “a 1×kinase”, “7.4), 0.05% BSA, 0.005%” for “7.4), 0.01%”, “Tween-20, 1” for “Tween-20, 5”, “mM MnCl2, 20” for “mM Na3VO4, 2 mM EGTA, 10”
The cMET protein was diluted to a concentration of 263 nM with a cMET storage buffer (50 mM Tris-HCl (pH 7.5), 150 mM NaCl, 0.05% Brij35, 1 mM DTT, 10% Glycerol), and then diluted again to a concentration of 2 nM with a 1× kinase reaction buffer. As a substrate cocktail, a MET-specific substrate mixture (5 uM TK peptide, […]) at a concentration 2 times the final reaction concentration.
as §2
as §3, with “of 2” for “of 0.4”, “nM cMET” for “nM RON”, “of 90” for “of 30”, “The […]” for “The IC50”

Chain of RON (Q04912 25-1400, species assumed): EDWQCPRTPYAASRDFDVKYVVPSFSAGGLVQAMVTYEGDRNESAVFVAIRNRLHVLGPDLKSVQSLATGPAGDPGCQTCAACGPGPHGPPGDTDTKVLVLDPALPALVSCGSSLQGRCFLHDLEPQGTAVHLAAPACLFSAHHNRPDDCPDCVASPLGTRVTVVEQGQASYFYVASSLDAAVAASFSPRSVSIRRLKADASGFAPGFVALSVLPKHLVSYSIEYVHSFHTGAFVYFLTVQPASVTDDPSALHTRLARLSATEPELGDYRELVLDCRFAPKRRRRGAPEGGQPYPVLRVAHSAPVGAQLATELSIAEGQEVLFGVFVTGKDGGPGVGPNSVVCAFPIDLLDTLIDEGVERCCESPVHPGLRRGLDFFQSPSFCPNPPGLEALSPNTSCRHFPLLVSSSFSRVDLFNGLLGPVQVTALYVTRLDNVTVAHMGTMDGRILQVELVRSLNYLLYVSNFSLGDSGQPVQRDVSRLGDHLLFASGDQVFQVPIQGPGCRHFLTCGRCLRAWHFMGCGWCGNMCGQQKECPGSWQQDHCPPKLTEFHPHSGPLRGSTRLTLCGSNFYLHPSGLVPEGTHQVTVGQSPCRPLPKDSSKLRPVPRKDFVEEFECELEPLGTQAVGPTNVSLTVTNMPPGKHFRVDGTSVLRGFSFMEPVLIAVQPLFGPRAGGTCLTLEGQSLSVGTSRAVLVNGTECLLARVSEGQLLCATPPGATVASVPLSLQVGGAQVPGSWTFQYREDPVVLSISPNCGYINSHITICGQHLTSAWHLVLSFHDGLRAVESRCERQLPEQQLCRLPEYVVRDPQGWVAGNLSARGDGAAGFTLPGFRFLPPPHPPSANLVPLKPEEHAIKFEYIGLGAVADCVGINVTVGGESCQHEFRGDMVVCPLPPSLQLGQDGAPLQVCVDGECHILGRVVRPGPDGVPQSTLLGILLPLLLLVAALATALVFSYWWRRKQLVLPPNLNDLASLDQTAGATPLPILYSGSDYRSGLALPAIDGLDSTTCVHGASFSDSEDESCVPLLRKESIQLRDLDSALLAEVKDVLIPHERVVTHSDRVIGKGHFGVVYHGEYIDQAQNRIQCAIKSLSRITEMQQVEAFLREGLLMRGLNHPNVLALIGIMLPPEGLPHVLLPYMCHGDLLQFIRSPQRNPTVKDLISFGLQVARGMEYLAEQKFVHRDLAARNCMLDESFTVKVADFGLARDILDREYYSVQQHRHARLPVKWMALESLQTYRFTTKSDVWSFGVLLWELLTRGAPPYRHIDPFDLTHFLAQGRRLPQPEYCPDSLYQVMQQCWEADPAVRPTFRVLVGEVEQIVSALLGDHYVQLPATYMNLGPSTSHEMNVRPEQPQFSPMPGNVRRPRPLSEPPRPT
Chain of cMET (P08581 25-1390): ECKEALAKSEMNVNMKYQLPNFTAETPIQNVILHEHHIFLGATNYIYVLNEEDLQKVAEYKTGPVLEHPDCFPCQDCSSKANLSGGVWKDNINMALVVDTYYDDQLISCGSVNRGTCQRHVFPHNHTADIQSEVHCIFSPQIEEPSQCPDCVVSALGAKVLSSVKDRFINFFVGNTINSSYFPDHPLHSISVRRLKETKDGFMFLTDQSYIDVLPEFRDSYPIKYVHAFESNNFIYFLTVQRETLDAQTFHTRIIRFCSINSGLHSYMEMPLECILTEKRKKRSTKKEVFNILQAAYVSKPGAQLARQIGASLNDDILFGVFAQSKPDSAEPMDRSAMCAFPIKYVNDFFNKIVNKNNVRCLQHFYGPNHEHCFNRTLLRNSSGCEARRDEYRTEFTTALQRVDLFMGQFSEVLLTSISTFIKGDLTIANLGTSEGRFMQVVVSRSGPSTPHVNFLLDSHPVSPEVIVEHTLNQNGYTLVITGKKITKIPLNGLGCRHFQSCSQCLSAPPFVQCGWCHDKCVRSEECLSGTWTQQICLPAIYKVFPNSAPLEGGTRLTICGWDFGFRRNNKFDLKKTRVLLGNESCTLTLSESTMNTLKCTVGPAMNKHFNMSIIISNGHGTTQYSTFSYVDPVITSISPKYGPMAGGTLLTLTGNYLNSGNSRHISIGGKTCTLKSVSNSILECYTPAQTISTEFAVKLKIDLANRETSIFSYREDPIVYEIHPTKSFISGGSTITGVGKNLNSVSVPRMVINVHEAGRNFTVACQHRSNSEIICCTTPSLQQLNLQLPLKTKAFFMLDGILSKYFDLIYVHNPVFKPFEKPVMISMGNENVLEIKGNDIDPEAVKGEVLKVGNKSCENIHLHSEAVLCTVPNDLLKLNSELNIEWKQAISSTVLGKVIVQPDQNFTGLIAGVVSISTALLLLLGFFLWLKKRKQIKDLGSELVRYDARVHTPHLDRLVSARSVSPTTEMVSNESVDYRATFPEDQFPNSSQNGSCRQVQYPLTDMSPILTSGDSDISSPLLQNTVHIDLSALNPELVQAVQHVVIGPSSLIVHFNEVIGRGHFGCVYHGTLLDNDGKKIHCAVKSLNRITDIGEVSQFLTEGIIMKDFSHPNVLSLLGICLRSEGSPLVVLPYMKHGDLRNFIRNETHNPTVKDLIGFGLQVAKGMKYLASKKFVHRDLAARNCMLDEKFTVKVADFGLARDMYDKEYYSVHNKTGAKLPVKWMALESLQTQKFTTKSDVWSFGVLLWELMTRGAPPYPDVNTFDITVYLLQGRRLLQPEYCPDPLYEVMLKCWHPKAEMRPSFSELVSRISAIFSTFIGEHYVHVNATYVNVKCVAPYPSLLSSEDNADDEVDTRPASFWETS

| SMILES | pIC50 (RON) | pIC50 (cMET) |
| --- | --- | --- |
| COc1ccc(-n2ncc(C(=O)Nc3ccc(Oc4ccnc5[nH]c(=O)n(C(C)C)c45)c(F)c3)c2C(F)(F)F)nc1 [Example 34, N-(3-fluoro-4-((1-isopropyl-2-oxo-2,3-dihydro-1H-imidazo[4,5-b]pyridine-7-yl)oxy)phenyl)-1-(5-methoxypyridine-2-yl)-5-(trifluoromethyl)-1H-pyrazole-4-carboxamide] | 6.30 to 7.30 | < 5.30 |
| CC(C)n1c(=O)[nH]c2nccc(Oc3ccc(NC(=O)c4cnn(-c5cccnn5)c4C(F)(F)F)cc3F)c21 [Example 35, N-(3-fluoro-4-((1-isopropyl-2-oxo-2,3-dihydro-1H-imidazo[4,5-b]pyridine-7-yl)oxy)phenyl)-1-(pyridazine-3-yl)-5-(trifluoromethyl)-1H-pyrazole-4-carboxamide] | > 7.30 | 5.30 to 6.30 |
| Cc1cnc(-n2ncc(C(=O)Nc3ccc(Oc4ccnc5[nH]c(=O)n(C(C)C)c45)c(F)c3)c2C(F)(F)F)nc1 [Example 36, N-(3-fluoro-4-((1-isopropyl-2-oxo-2,3-dihydro-1H-imidazo[4,5-b]pyridine-7-yl)oxy)phenyl)-1-(5-methylpyrimidine-2-yl)-5-(trifluoromethyl)-1H-pyrazole-4-carboxamide] | > 7.30 | 5.30 to 6.30 |
| CCOc1cccnc1-n1ncc(C(=O)Nc2ccc(Oc3ccnc4[nH]c(=O)n(C(C)C)c34)c(F)c2)c1C(F)(F)F [Example 37, 1-(3-ethoxypyridine-2-yl)-N-(3-fluoro-4-((1-isopropyl-2-oxo-2,3-dihydro-1H-imidazo[4,5-b]pyridine-7-yl)oxy)phenyl)-5-(trifluoromethyl)-1H-pyrazole-4-carboxamide] | 6.30 to 7.30 | 5.30 to 6.30 |
| CC(C)n1c(=O)[nH]c2nccc(Oc3ccc(NC(=O)c4cnn(-c5cc(F)ccn5)c4C(F)(F)F)cc3F)c21 [Example 38, N-(3-fluoro-4-((1-isopropyl-2-oxo-2,3-dihydro-1H-imidazo[4,5-b]pyridine-7-yl)oxy)phenyl)-1-(4-fluoropyridine-2-yl)-5-(trifluoromethyl)-1H-pyrazole-4-carboxamide] | > 7.30 | < 5.30 |
| O=C(Nc1ccc(Oc2ccnc3[nH]c(=O)n(C4CCOCC4)c23)c(F)c1)c1cnn(-c2ncccc2F)c1C(F)(F)F [Example 39, N-(3-fluoro-4-((2-oxo-1-(tetrahydro-2H-pyran-4-yl)-2,3-dihydro-1H-imidazo[4,5-b]pyridine-7-yl)oxy)phenyl)-1-(3-fluoropyridine-2-yl)-5-(trifluoromethyl)-1H-pyrazole-4-carboxamide] | > 7.30 | 5.30 to 6.30 |
| O=C(Nc1ccc(Oc2ccnc3[nH]c(=O)n(C4CCOC4)c23)c(F)c1)c1cnn(-c2ncccc2F)c1C(F)(F)F (stereo not shown) [Example 40, N-(3-fluoro-4-((2-oxo-1-(tetrahydrofuran-3-yl)-2,3-dihydro-1H-imidazo[4,5-b]pyridine-7-yl)oxy)phenyl)-1-(3-fluoropyridine-2-yl)-5-(trifluoromethyl)-1H-pyrazole-4-carboxamide] | > 7.30 | 5.30 to 6.30 |
| CN1CCC(n2c(=O)[nH]c3nccc(Oc4ccc(NC(=O)c5cnn(-c6ncccc6F)c5C(F)(F)F)cc4F)c32)CC1 [Example 41, N-(3-fluoro-4-((1-(1-methylpiperidine-4-yl)-2-oxo-2,3-dihydro-1H-imidazo[4,5-b]pyridine-7-yl)oxy)phenyl)-1-(3-fluoropyridine-2-yl)-5-(trifluoromethyl)-1H-pyrazole-4-carboxamide] | > 7.30 | < 5.30 |
